# Reference: patent publication US20250160324A1, “ACIDIFIED OLEOGEL AND METHODS OF USE” (University of Massachusetts, priority 2023, published 2025)
# How the values were obtained:
# [1] = system: desiccated Salmonella enterica subsp. enterica serovar Enteritidis phage type 30 (ATCC BAA-1045); test: Antimicrobial assay against cells desiccated on stainless-steel coupons; type: cell-based; conditions: 200 mM organic acid, 30-min contact; for MLR ± SD, W/O emulsion, 22° C. / MLR ± SD, W/O emulsion, 45° C.: 1% v/v water; for MLR ± SD, W/O emulsion, 22° C. / MLR ± SD, W/O emulsion, 45° C. / MLR ± SD, W/O emulsion with glycerol, 45° C. / MLR ± SD, W/O emulsion with glycerol, 22° C.: 75% ERH; for MLR ± SD, Oil with PGPR, 45° C. / MLR ± SD, Oil with PGPR, 22° C.: cells desiccated to 75% ERH
# [2] = Water activity (aw) by Dewpoint aw meter; type: physicochemical; conditions: 200 mM organic acid
SMILES,"MLR ± SD, W/O emulsion, 22° C. [1]","MLR ± SD, W/O emulsion, 45° C. [1]","MLR ± SD, W/O emulsion with glycerol, 45° C. [1]","MLR ± SD, Oil with PGPR, 45° C. [1]","MLR ± SD, W/O emulsion with glycerol, 22° C. [1]","MLR ± SD, Oil with PGPR, 22° C. [1]","MLR ± SD, Oil with PGPR, 22° C. ([1]; listed as C2)","MLR ± SD, Oil with PGPR, 45° C. ([1]; listed as C2)","MLR ± SD, Oil with PGPR, 22° C. ([1]; listed as C3)","MLR ± SD, Oil with PGPR, 45° C. ([1]; listed as C3)",measured solution aw of acidified oil [2]
"CCCCCCCCCCC(=O)O [Undecylic, undecylic/undecanoic acid]",0.38 ± 0.09,>6.52,0.22 ± 0.18,0.31 ± 0.03,–,–,–,–,–,–,–
"CCCCCCCCCC(=O)O [Capric, capric/decanoic acid]",0.67 ± 0.17,>6.52,0.57 ± 0.09,0.28 ± 0.09,0.37 ± 0.06,0.23 ± 0.04,–,–,–,–,–
"CCCCCCCC(=O)O [Caprylic, caprylic/octanoic acid]",0.94 ± 0.26,>6.52,0.74 ± 0.11,0.49 ± 0.26,0.56 ± 0.18,–,–,–,–,–,–
"CC(=O)O [Acetic, acetic/ethanoic acid]",>6.52,>6.52,2.53 ± 0.75,1.42 ± 0.14,0.81 ± 0.24,0.69 ± 0.19,0.69,1.42,–,–,–
"CCC(=O)O [Propionic, propionic/propanoic acid]",>6.52,>6.52,1.41 ± 0.66,1.11 ± 0.27,0.73 ± 0.22,0.89 ± 0.24,–,–,0.89,1.11,–
"CCCCC(=O)O [Valeric, valeric/pentanoic acid]",0.11 ± 0.05,>6.52,1.12 ± 0.16,0.31 ± 0.02,–,–,–,–,–,–,–
"O=CO [Formic, formic/methanoic acid]",–,–,–,–,–,–,–,–,–,–,0.51
"CCCC(=O)O [Butyric, butyric/butanoic acid]",0.55 ± 0.06,>6.52,1.40 ± 0.31,0.52 ± 0.13,0.31 ± 0.16,–,–,–,–,–,–
"CCCCCCCCC(=O)O [Pelargonic, pelargonic/nonanoic acid]",0.31 ± 0.10,>6.52,0.30 ± 0.09,0.39 ± 0.11,–,–,–,–,–,–,–
"CCCCCCC(=O)O [Enanthic, enanthic/heptanoic acid]",0.34 ± 0.26,>6.52,0.79 ± 0.22,0.34 ± 0.03,–,–,–,–,–,–,–
"CCCCCCCCCCCC(=O)O [Lauric, lauric/dodecanoic acid]",1.05 ± 0.28,>6.52,1.02 ± 0.04,0.40 ± 0.17,0.49 ± 0.12,0.16 ± 0.06,–,–,–,–,–
"CCCCCC(=O)O [Caproic, caproic/hexanoic acid]",0.72 ± 0.18,>6.52,0.74 ± 0.48,0.68 ± 0.08,0.10 ± 0.03,0.21 ± 0.09,–,–,–,–,–
